Data reported in PubChem BioAssay AID248 (DTP/NCI, 2004).
Inconclusive results and toxic doses are left out.

System: L1210 leukemia ip in BDF1 mice, survival T/C
Test: NCI In Vivo Anticancer Drug Screen. Data for tumor model L1210 Leukemia (intraperitoneal) in B6D2F1 (BDF1) mice
Settings: endpoint: mean survival time, higher = longer survival
Method in brief: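 Ratio derived from survival: compound-dosed mice over vehicle-dosed mice, all bearing a transplantable tumor.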

[1] = dose: 100.0 mg/kg/injection, schedule: Q01DX001 (ip), vehicle: saline
[2] = dose: 200.0 mg/kg/injection, schedule: Q01DX001 (ip), vehicle: saline
[3] = dose: 100.0 mg/kg/injection, schedule: Q01DX001 (ip), vehicle: other
[4] = dose: 200.0 mg/kg/injection, schedule: Q01DX001 (ip), vehicle: other
[5] = dose: 400.0 mg/kg/injection, schedule: Q01DX001 (ip), vehicle: other
[6] = dose: 100.0 mg/kg/injection, schedule: Q01DX009 (ip), vehicle: Klucel (hydroxypropylcellulose) (HPC)
[7] = dose: 200.0 mg/kg/injection, schedule: Q01DX009 (ip), vehicle: Klucel (hydroxypropylcellulose) (HPC)

`COC(=O)c1ccccc1NC(=O)c1ccccc1[N+](=O)[O-]` was tested, and the T/C (dose: 75.0 mg/kg/injection, schedule: Q04DX003 (ip), vehicle: Klucel (hydroxypropylcellulose) (HPC)) was 101 % of control, the T/C (dose: 100.0 mg/kg/injection, schedule: Q01DX001 (ip), vehicle: Klucel (hydroxypropylcellulose) (HPC)) was 95 % of control and the T/C (dose: 150.0 mg/kg/injection, schedule: Q04DX003 (ip), vehicle: Klucel (hydroxypropylcellulose) (HPC)) was 98 % of control. For the same compound, the T/C (dose: 200.0 mg/kg/injection, schedule: Q01DX001 (ip), vehicle: Klucel (hydroxypropylcellulose) (HPC)) was 100 % of control, the T/C (dose: 300.0 mg/kg/injection, schedule: Q04DX003 (ip), vehicle: Klucel (hydroxypropylcellulose) (HPC)) was 97 % of control and the T/C (dose: 400.0 mg/kg/injection, schedule: Q01DX001 (ip), vehicle: Klucel (hydroxypropylcellulose) (HPC)) was 95 % of control.

In the case of `CCOc1ccc(/C=N/NC(=O)C(O)c2ccccc2)cc1OC` (stereo unspecified), the T/C (dose: 100.0 mg/kg/injection, schedule: Q01DX009 (ip), vehicle: saline with Tween-80) is reported as 97 % of control, the T/C (dose: 200.0 mg/kg/injection, schedule: Q01DX009 (ip), vehicle: saline with Tween-80) is reported as 92 % of control and the T/C (dose: 400.0 mg/kg/injection, schedule: Q01DX009 (ip), vehicle: saline with Tween-80) is reported as 90 % of control.

In the case of `Cc1cc(=O)[nH]c(O)c1C(=O)/C=C/c1ccccc1`, the T/C [1] is reported as 96 % of control and the T/C [2] is reported as 102 % of control.

In the case of `COC1=CC2C3=C(C(NC=O)CCc4cc(O)c(OC)c(OC)c43)C2C1=O` (stereo unspecified), the T/C (dose: 100.0 mg/kg/injection, schedule: Q04DX003 (ip), vehicle: saline with Tween-80) is reported as 101 % of control, the T/C (dose: 200.0 mg/kg/injection, schedule: Q04DX003 (ip), vehicle: saline with Tween-80) is reported as 93 % of control and the T/C (dose: 400.0 mg/kg/injection, schedule: Q04DX003 (ip), vehicle: saline with Tween-80) is reported as 108 % of control.

In the case of `CC(C)CC(NS(=O)(=O)Cc1ccccc1)C(=O)NNc1ccccc1` (stereo unspecified), the T/C [3] is reported as 97 % of control, the T/C (dose: 100.0 mg/kg/injection, schedule: Q04DX003 (ip), vehicle: other) is reported as 95 % of control and the T/C [4] is reported as 94 % of control. The T/C (dose: 200.0 mg/kg/injection, schedule: Q04DX003 (ip), vehicle: other) was 91 % of control and the T/C [5] was 92 % of control.

In the case of `C[Se]c1ncnc2c1ccn2C1OC(CO)C(O)C1O` (stereo unspecified), the T/C (dose: 12.5 mg/kg/injection, schedule: Q01DX005 (ip), vehicle: saline) is reported as 104 % of control, the T/C (dose: 25.0 mg/kg/injection, schedule: Q01DX005 (ip), vehicle: saline) is reported as 106 % of control and the T/C (dose: 50.0 mg/kg/injection, schedule: Q01DX005 (ip), vehicle: saline) is reported as 102 % of control.

`Cc1c(NC(=O)Nc2ccc(C3=NCCN3)cc2)cccc1NC(=O)Nc1ccc(C2=NCCN2)cc1` was tested, and the T/C (dose: 0.62 mg/kg/injection, schedule: Q01DX Z (ip), vehicle: carboxymethylcellulose (CMC)) was 92 % of control, the T/C (dose: 1.25 mg/kg/injection, schedule: Q01DX Z (ip), vehicle: carboxymethylcellulose (CMC)) was 98 % of control and the T/C (dose: 2.5 mg/kg/injection, schedule: Q01DX Z (ip), vehicle: carboxymethylcellulose (CMC)) was 102 % of control. For the same compound, the T/C (dose: 8.5 mg/kg/injection, schedule: Q01DX Z (oral), vehicle: carboxymethylcellulose (CMC)) was 109 % of control, the T/C (dose: 9.0 mg/kg/injection, schedule: Q01DX Z (ip), vehicle: water) was 205 % of control and the T/C (dose: 13.5 mg/kg/injection, schedule: Q01DX Z (oral), vehicle: carboxymethylcellulose (CMC)) was 121 % of control. For the same compound, the T/C (dose: 18.0 mg/kg/injection, schedule: Q01DX Z (ip), vehicle: water) was 160 % of control, the T/C (dose: 20.0 mg/kg/injection, schedule: Q01DX Z (oral), vehicle: carboxymethylcellulose (CMC)) was 111 % of control and the T/C (dose: 30.0 mg/kg/injection, schedule: Q01DX Z (oral), vehicle: carboxymethylcellulose (CMC)) was 109 % of control. For the same compound, the T/C (dose: 36.0 mg/kg/injection, schedule: Q01DX Z (ip), vehicle: water) was 111 % of control, the T/C (dose: 45.0 mg/kg/injection, schedule: Q01DX Z (oral), vehicle: carboxymethylcellulose (CMC)) was 114 % of control and the T/C (dose: 62.0 mg/kg/injection, schedule: Q01DX Z (ip), vehicle: saline) was 124 % of control. The T/C (dose: 125.0 mg/kg/injection, schedule: Q01DX Z (ip), vehicle: saline) was 96 % of control.

`CCOC(=O)/C=C/C(=O)OCC` was tested, and the T/C [6] was 100 % of control, the T/C [7] was 103 % of control and the T/C (dose: 400.0 mg/kg/injection, schedule: Q01DX009 (ip), vehicle: Klucel (hydroxypropylcellulose) (HPC)) was 108 % of control.

`COc1ccc2c3c1OC1C=CC(O)C4C(C2)N(C)CCC314` (stereo unspecified) was tested, and the T/C [1] was 98 % of control and the T/C [2] was 89 % of control.

For `CCC(=O)Nc1ccc(C)cc1C`, the T/C [6] was 92 % of control, the T/C (dose: 100.0 mg/kg/injection, schedule: Q04DX003 (ip), vehicle: Klucel (hydroxypropylcellulose) (HPC)) was 97 % of control and the T/C [7] was 94 % of control. The T/C (dose: 200.0 mg/kg/injection, schedule: Q04DX003 (ip), vehicle: Klucel (hydroxypropylcellulose) (HPC)) was 107 % of control and the T/C (dose: 400.0 mg/kg/injection, schedule: Q04DX003 (ip), vehicle: Klucel (hydroxypropylcellulose) (HPC)) was 96 % of control.

In the case of `COc1cccc(/C(C)=N\OC(=O)N(C)C)c1`, the T/C (dose: 100.0 mg/kg/injection, schedule: Q01DX001 (ip), vehicle: carboxymethylcellulose (CMC)) is reported as 95 % of control, the T/C (dose: 200.0 mg/kg/injection, schedule: Q01DX001 (ip), vehicle: carboxymethylcellulose (CMC)) is reported as 95 % of control and the T/C (dose: 400.0 mg/kg/injection, schedule: Q01DX001 (ip), vehicle: carboxymethylcellulose (CMC)) is reported as 98 % of control.

In the case of `CCCCCCCCCCCCCCCCCC(=O)C(C(=O)OCC)C(=O)OCC`, the T/C [3] is reported as 93 % of control, the T/C [4] is reported as 88 % of control and the T/C [5] is reported as 90 % of control.

With `C[N+]1(C)Cc2ccccc2-c2ccccc2C1` the T/C (dose: 12.0 mg/kg/injection, schedule: Q04DX003 (ip), vehicle: saline) was 121 % of control, the T/C (dose: 12.5 mg/kg/injection, schedule: Q01DX009 (ip), vehicle: saline) was 103 % of control and the T/C (dose: 25.0 mg/kg/injection, schedule: Q01DX009 (ip), vehicle: saline) was 111 % of control. For the same compound, the T/C (dose: 25.0 mg/kg/injection, schedule: Q04DX003 (ip), vehicle: saline) was 94 % of control and the T/C (dose: 50.0 mg/kg/injection, schedule: Q04DX003 (ip), vehicle: saline) was 106 % of control.
